Laboratory results: US6355633B1, “Aryl sulfonic acids and derivatives as FSH antagonists” (American Home Products Corporation, priority 1999, dated 2002)
pIC50: −log10 of the molar value.

Biological target: T1, FSH receptor (Rattus norvegicus, UniProt P20395)
T1 construct: endogenous in cells; host or cells: primary ovarian granulosa cells of DES-treated immature Sprague-Dawley rats
T1 sequence (P20395 18-692): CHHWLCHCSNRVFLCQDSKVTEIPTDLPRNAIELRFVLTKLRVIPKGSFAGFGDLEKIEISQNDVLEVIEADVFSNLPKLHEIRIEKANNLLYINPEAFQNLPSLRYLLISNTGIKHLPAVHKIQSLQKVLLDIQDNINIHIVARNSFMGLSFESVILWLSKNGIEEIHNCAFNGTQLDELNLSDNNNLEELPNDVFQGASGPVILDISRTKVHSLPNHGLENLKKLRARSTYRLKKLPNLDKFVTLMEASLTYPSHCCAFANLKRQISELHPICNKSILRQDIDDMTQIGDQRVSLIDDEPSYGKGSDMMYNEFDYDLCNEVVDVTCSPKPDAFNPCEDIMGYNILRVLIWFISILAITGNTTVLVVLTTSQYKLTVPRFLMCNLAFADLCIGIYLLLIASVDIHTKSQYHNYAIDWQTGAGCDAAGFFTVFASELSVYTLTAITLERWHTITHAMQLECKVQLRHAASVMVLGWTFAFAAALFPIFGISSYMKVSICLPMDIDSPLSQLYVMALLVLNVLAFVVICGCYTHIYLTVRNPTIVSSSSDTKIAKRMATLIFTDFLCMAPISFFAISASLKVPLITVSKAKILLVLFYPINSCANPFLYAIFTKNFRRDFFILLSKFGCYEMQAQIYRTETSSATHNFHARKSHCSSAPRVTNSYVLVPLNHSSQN
Experiment: In Vitro Bio-test Procedure of Agonists and Antagonists to the FSH Receptor Using Primary Cultures of Rat Granulosa (estradiol secretion)
Format: cell-based
Conditions: not given
Protocol: In Vitro Bio-test Procedure of Agonists and Antagonists to the FSH Receptor Using Primary Cultures of Rat Granulosa
Materials and Methods: Reagents
The concentration of vehicle was maintained constant throughout all dilutions.
Preparation of Granulosa Cells: Twenty-four day-old immature female Sprague-Dawley rats (Charles River Laboratories, Wilmington, Mass.) were used as donors for ovarian granulosa cells. The animals were treated by single daily injections of 100 mg/kg diethylstilbestrol (DES) in oil over three days. On the fourth day, animals were sacrificed by CO2 asphyxiation and the ovaries were removed. Ovaries were washed three times in 50 mL of sterile HEPES-buffered saline (HBS, pH 7.4). Granulosa cells were harvested by incubating ovaries in a hypertonic medium consisting of serum-free McCoy*s SA medium (Gibco Life Sciences, Grand Island, N.Y.) supplemented with […], […], 5 ng/mL sodium selenite (ITS, Sigma Chemical Co., St. Louis Mo.), […] L-glutamine, 100 nM testosterone, 100 nM DES and 100 U/mL penicillin/[…]/250 ng/mL amphotericin B (antibiotic/antimycotic, Gibco) containing 0.5 M sucrose and 0.1 mM EGTA. Ovaries were then incubated for 45 min. at 37 C. in a humidified incubator gassed with 95% air/5% CO2. They were washed 3 times with 10 mL isotonic medium (hypertonic medium without sucrose and EGTA) and incubated another 45 min. in isotonic medium at 37 C. Granulosa cells were harvested by squeezing the ovaries between two sterile glass microscope slides. Isolated granulosa cells were then placed in an 50 mL centrifuge tube and washed two times by the addition of 50 mL serum-free McCoy*s 5A medium followed by centrifugation at 700×g for 5 min. After the final spin, the cells were resuspended by gentle trituration in 25 mL serum-free medium, an aliquot counted in a hemocytometer and viability estimated by trypan blue exclusion. Cells were plated into 24-well Nunc tissue culture plates at 200,000 viable cells/well in […].
Procedure: Following plating of the cells, the plates are incubated at 37 C for 2-4 hours at which time the treatments are added to the cells. Treatments are added to the wells at 2× the desired final concentration in […] in isotonic medium containing 0.2% BSA. The cells are incubated at 37 C. for 72 h. At the end of the incubation period, the medium is removed from the wells and tested for estradiol concentration by radioimmunoassay.
Experimental Groups: In the 24-well format, the plate was divided into 6 columns of 4 wells/column. One plate per compound was used to test either agonist or antagonist modes. […]
Four different doses of compound were tested in the antagonist mode. In addition, one column was used for a negative control (vehicle alone) and the other remaining column for a positive control (ED50 of FSH alone).
The doses of compound chosen to test were extrapolated from the initial functional screening process. Along with the plates testing compounds, another plate was run in parallel using a dose-response of FSH (0.01-100 ng/mL) as a positive control.
Analysis of Results: Estradiol was expressed as pg/mL. Estradiol secretion in agonist mode, or the ability of the compound to inhibit FSH-induced estradiol secretion in antagonist, was compared to the appropriate negative and positive controls. Data were analyzed statistically by analysis of variance with Huber weighting of log transformed data. Paired differences were determined using the LSD test
Reference Compounds: Test compounds were compared to the effect of purified or recombinant human FSH.

Molecule | pIC50
CS(=O)(=O)c1ccc(C(=O)Nc2ccc(/C=C/c3ccc(NC(=O)c4ccc(S(C)(=O)=O)cc4)cc3S(=O)(=O)O)c(S(=O)(=O)O)c2)cc1 [Example 30q, 2,2′-[(E)-1,2-Ethenediyl]bis[5-[[4-(methylsulfonyl)benzoyl]amino]benzenesulfonic Acid]] | 5.89
COc1ccc(C(=O)Nc2ccc(/C=C/c3ccc(NC(=O)c4ccc(OC)c(S(=O)(=O)N5CCSCC5)c4)cc3S(=O)(=O)O)c(S(=O)(=O)O)c2)cc1S(=O)(=O)N1CCSCC1 [Example 33d, 2,2′-[(E)-1,2-Ethenediyl]bis[5-[[4-methoxy-3-(4-thiomorpholinylsulfonyl)benzoyl]amino]benzenesulfonic Acid]] | 5.00
COc1ccc(C(=O)Nc2ccc(/C=C/c3ccc(NC(=O)c4ccc(OC)c(S(=O)(=O)N5CCS(=O)(=O)CC5)c4)cc3S(=O)(=O)O)c(S(=O)(=O)O)c2)cc1S(=O)(=O)N1CCS(=O)(=O)CC1 [Example 30k, 2,2′-[(E)-1,2-Ethenediyl]bis[5-[[3-[(1,1-dioxido-4-thiomorpholinyl)sulfonyl]-4-methoxybenzoyl]amino]benzenesulfonic Acid]] | 5.51
CCS(=O)(=O)c1ccc(C(=O)Nc2ccc(/C=C/c3ccc(NC(=O)c4ccc(S(=O)(=O)CC)cc4)cc3S(=O)(=O)O)c(S(=O)(=O)O)c2)cc1 [Example 32f, 2,2′-[(E)-1,2-Ethenediyl]bis[5-[[4-(ethylsulfonyl)benzoyl]amino]benzenesulfonic Acid]] | 5.55
COc1ccc(C(=O)Nc2ccc(CCc3ccc(NC(=O)c4ccc(S(C)(=O)=O)cc4)cc3S(=O)(=O)O)c(S(=O)(=O)O)c2)cc1S(=O)(=O)N1CCOCC1 [Example 43a, 5-[[4-Methoxy-3-(4-morpholinylsulfonyl)benzoyl]amino]-2-[2-[4-[[4-(methylsulfonyl)benzoyl]amino]-2-sulfophenyl]ethyl]benzenesulfonic Acid] | 4.77
COCCOc1ccc(C(=O)Nc2ccc(/C=C/c3ccc(NC(=O)c4ccc(OCCOC)c(S(=O)(=O)N5CCOCC5)c4)cc3S(=O)(=O)O)c(S(=O)(=O)O)c2)cc1S(=O)(=O)N1CCOCC1 [Example 30t, 2,2′-[(E)-1,2-Ethenediyl]bis[5-[[4-(2-methoxyethoxy)-3-(4-morpholinylsulfony)benzoyl]amino]benzenesulfonic Acid]] | 5.85
COc1ccc(C(=O)Nc2ccc(/C=C/c3ccc(NC(=O)c4ccc(OC)c(S(=O)(=O)N5CCN(C(C)=O)CC5)c4)cc3S(=O)(=O)O)c(S(=O)(=O)O)c2)cc1S(=O)(=O)N1CCN(C(C)=O)CC1 [Example 34a, 2,2′-[(E)-1,2-Ethenediyl]bis[5-[[3-[(4-acetyl-1-piperazinyl)sulfonyl]-4-methoxybenzoyl]amino]benzenesulfonic Acid]] | 4.24
CSc1ccc(C(=O)Nc2ccc(/C=C/c3ccc(NC(=O)c4ccc(S(C)(=O)=O)c([N+](=O)[O-])c4)cc3S(=O)(=O)O)c(S(=O)(=O)O)c2)cc1S(=O)(=O)N1CCOCC1 [Example 30e] | 5.74
COc1ccc(C(=O)Nc2ccc(/C=C/c3ccc(NC(=O)c4ccc(OC)c(S(=O)(=O)N5CCCC5)c4)cc3S(=O)(=O)O)c(S(=O)(=O)O)c2)cc1S(=O)(=O)N1CCCC1 [Example 33e, 2,2′-[(E)-1,2-Ethenediyl]bis[5-[[4-methoxy-3-(1-pyrrolidinylsulfonyl)benzoyl]amino]benzenesulfonic Acid]] | 5.68
COCCNS(=O)(=O)c1cc(C(=O)Nc2ccc(/C=C/c3ccc(NC(=O)c4ccc(OC)c(S(=O)(=O)NCCOC)c4)cc3S(=O)(=O)O)c(S(=O)(=O)O)c2)ccc1OC [Example 30m, 2,2′-[(E)-1,2-Ethenediyl]bis[5-[[4-methoxy-3-[[(2-methoxyethyl)amino]sulfonyl]benzoyl]amino]benzenesulfonic Acid]] | 5.17
O=C(Nc1ccc(/C=C/c2ccc(NC(=O)c3ccc(OC4CCOCC4)c(S(=O)(=O)N4CCOCC4)c3)cc2S(=O)(=O)O)c(S(=O)(=O)O)c1)c1ccc(OC2CCOCC2)c(S(=O)(=O)N2CCOCC2)c1 [Example 30r, 2,2′-[(E)-1,2-Ethenediyl]bis[5-[[3-(4-morpholinylsulfonyl)-4-[(tetrahydro-2H-pyran-4-yl)oxy]benzoyl]amino]benzenesulfonic Acid]] | 5.96
COc1ccc(C(=O)Nc2ccc(/C=C/c3ccc(NC(=O)c4ccc(OC)c(S(=O)(=O)N5CCOCC5)c4)cc3S(=O)(=O)O)c(S(=O)(=O)O)c2)cc1S(=O)(=O)N1CCOCC1 [Example 30s, 2,2′-[(E)-1,2-Ethenediyl]bis[5-[[4-methoxy-3-(4-morpholinylsulfonyl)benzoyl]amino]benzenesulfonic Acid]] | 5.92
CS(=O)(=O)c1ccc(C(=O)Nc2ccc(/C=C/c3ccc(NC(=O)c4ccc(S(C)(=O)=O)c(S(=O)(=O)N5CCOCC5)c4)cc3S(=O)(=O)O)c(S(=O)(=O)O)c2)cc1S(=O)(=O)N1CCOCC1 [Example 30d, 2,2′-[(E)-1,2-Ethenediyl]bis[5-[[4-(methylsulfonyl)-3-(4-morpholinylsulfonyl)benzoyl]amino]benzenesulfonic Acid]] | 5.55
COc1ccc(C(=O)Nc2ccc(/C=C/c3ccc(NC(=O)c4ccc(OC)c(S(=O)(=O)N5CCN(C=O)CC5)c4)cc3S(=O)(=O)O)c(S(=O)(=O)O)c2)cc1S(=O)(=O)N1CCN(C=O)CC1 [Example 34b, 2,2′-[(E)-1,2-Ethenediyl]bis[5-[[3-[(4-formyl-1-piperazinyl)sulfonyl]-4-methoxybenzoyl]amino]benzenesulfonic Acid]] | 5.31
COCCOCCOc1ccc(C(=O)Nc2ccc(/C=C/c3ccc(NC(=O)c4ccc(OCCOCCOC)c(S(=O)(=O)N5CCOCC5)c4)cc3S(=O)(=O)O)c(S(=O)(=O)O)c2)cc1S(=O)(=O)N1CCOCC1 [Example 30a, 2,2′-[(E)-1,2-Ethenediyl]bis[5-[[4-[2-(2-methoxyethoxy)ethoxy]-3-(4-morpholinylsulfonyl)benzoyl]amino]benzenesulfonic Acid]] | 5.72
COCCNS(=O)(=O)c1cc(C(=O)Nc2ccc(/C=C/c3ccc(NC(=O)c4ccc(S(C)(=O)=O)c([N+](=O)[O-])c4)cc3S(=O)(=O)O)c(S(=O)(=O)O)c2)ccc1OC [Example 30f] | 5.10

Same assay, conditions: antagonist mode, inhibition of FSH-induced estradiol secretion (ED50 of FSH, 0.5 ng/mL), rat granulosa cells, 72 h

Molecule | pIC50
2,2′-[(E)-1,2-Ethenediyl]bis[5-[[4-(methylthio)-3-(4-morpholinylsulfonyl)benzoyl]amino]benzenesulfonic Acid] [Example 30b] | 5.82
COc1ccc(C(=O)Nc2ccc(/C=C/c3ccc(NC(=O)c4ccc(S(C)(=O)=O)cc4)cc3S(=O)(=O)O)c(S(=O)(=O)O)c2)cc1S(=O)(=O)N1CCOCC1 [Example 30g] | 5.62
CS(=O)(=O)c1ccc(C(=O)Nc2ccc(/C=C/c3ccc(NC(=O)c4ccc(S(C)(=O)=O)c([N+](=O)[O-])c4)cc3S(=O)(=O)O)c(S(=O)(=O)O)c2)cc1[N+](=O)[O-] [Example 30c, 2.2′-[(E)-1,2-Ethenediyl]bis[5-[[(4-methylsulfonyl)-3-(nitro)-benzoyl]amino]benzenesulfonic Acid]] | 5.42
